Data from patent US20080063628A1, “METHODS TO PROMOTE CELL DIFFERENTIATION” (priority 2006, published 2008).

Assays:
Assay in all cases: Two sequential high dose trichostatin A treatments (24 h each), gene expression by RT-PCR (Example 8)
Type in all cases: cell-based, human
[1] = test system: early passage (P5) pancreatic-derived stromal cell line; conditions: for HNF-3 beta gene expression / Insulin gene expression / Pdx-1 gene expression / glucagon gene expression: 5 μM 0-24 h + 96-120 h
Experimental: (§1) Several cell lines obtained from different amniotic fluid specimens (see Example 14) and pancreas donors (see Example 13) were tested with similar results. Two lines at similar passage number but derived from different amniotic fluid specimens are shown in Table VIII-A and Table VIII-B for this example. One of these cell lines was also used in examples 2 and 4 above. In addition, this example also contains comparison data in Table VIII-C and Table VIII-D for a single pancreatic-derived stromal line grown to early and late passage number.
(§2) Amniotic fluid derived cells or pancreatic-derived stromal cells were seeded into 24-well tissue culture plates at a density of 5000/cm^2 and cultured in AMNIOMAX (Invitrogen) or DMEM with 10% FBS respectively under standard cell culture conditions until confluent. After the cells reached confluency, amniotic fluid derived cells were treated at time 0 hours with a dose of 1.25 μM trichostatin A, and pancreatic-derived stromal cells were treated with a dose of 5.0 μM trichostatin A solubilized in DMSO and medium. At time 24 hours, cell cultures underwent a complete medium change to remove all traces of trichostatin A. At time 96 hours, cell cultures were re-fed with fresh medium and received a second dose of trichostatin A at the same concentration as used previously. At time 120 hours, cell cultures again underwent a complete medium change and were cultured for an additional 24 hours or […] total incubation time.
(§3) Samples were taken daily for RT-PCR at the times indicated in Table VIII-A to D. The culture media was removed, and samples were rinsed in PBS then collected in RLT with β-mercaptoethanol (Qiagen). RNA was purified using the RNeasy Mini Kit (Qiagen) and RNA quantity and quality were determined using a spectrophotometer. cDNA was made using the iScript cDNA synthesis kit (BioRad).
(§4) Samples of 20 ng cDNA were used in each reaction to determine the expression levels of the following genes in amniotic fluid-derived cells: Gata1, HNF-3 beta, Pdx-1, insulin, and Sox17. Similarly, samples of 20 ng cDNA were used in each reaction to determine the expression level of the following genes in pancreatic-derived cells: glucagon, HNF-3 beta, insulin and Pdx-1. Real-Time PCR was performed on the Applied Biosystems 7500, and data was analyzed using the accompanying software according to the methods described in Example 15.
(§5) Real-time PCR amplifcation and quantitative analysis. Unless otherwise stated, all reagents were purchased from Applied Biosystems. Real-time PCR reactions were performed using the ABI PRISM™ 7500 Sequence Detection System. TAQMAN™ FAST UNIVERSAL PCR MASTER MIX™ (ABI, CA) was used with 20 ng of reverse transcribed RNA in a total reaction volume of 20 μl. Each cDNA sample was run in duplicate to allow correction of pipetting errors. Primers and FAM-labeled TAQMAN™ probes were used at concentrations of 200 nM. The level of expression for each target gene was normalized using the pre-developed Applied Biosystem's human glyceraldehyde-3-phosphate dehydrogenase (GAPDH) endogenous control kit. Primers and probes were designed using either ABI PRISM PRIMER EXPRESS™ software or a pre-developed ABI gene analysis kit. For each gene, either one of the primers or the probe were designed to be exon-boundary spanning. This eliminated the possibility of the primers/probe binding to any genomic DNA present. The primer and probe sets are listed as follows: Pdx-1 (Hs00426216), Insulin (Hs00355773), glucagon (Hs00174967), and FoxA2 (HNF 3-beta) (Hs00232764). The remaining primers were designed using the PRIMERS program (ABI, CA). After an initial 95° C. incubation for 20 sec, samples were cycled 40 times in two stages: a denaturation step at 95° C. for 3 sec, followed by an annealing/extension step at 60° C. for 30 sec. […]

[2] = test system: late passage (P11) pancreatic-derived stromal cell line; conditions: for HNF-3 beta RT-PCR detection cycle / Pdx-1 RT-PCR detection cycle / glucagon RT-PCR detection cycle: 5.0 μM
Experimental: as §1, §2, §3, §4, §5

[3] = test system: amniotic fluid-derived cell line; conditions: for Gata1 gene expression / HNF-3 beta gene expression / Insulin gene expression / Pdx-1 gene expression / sox17 gene expression: 1.25 μM 0-24 h + 96-120 h
Experimental: as §1, §2, §3, §4, §5

[4] = 5.0 μM, following first treatment
[5] = 5 μM 0-24 h + 96-120 h, 120 hrs

**Q.** What does the source list for `CC(/C=C/C(=O)NO)=C\[C@@H](C)C(=O)c1ccc(N(C)C)cc1` [trichostatin A]?
**A.** HNF-3 beta gene expression ([1]; 24 hrs): +++ (detectable at less than 35 cycles by RT-PCR with SE less than 0.9); Insulin gene expression ([1]; 24 hrs): nd (not detectable at >40 cycles by RT-PCR); Pdx-1 gene expression ([1]; 24 hrs): ++ (detectable at less than 35 cycles by RT-PCR with SE greater than 0.9); glucagon gene expression ([1]; 24 hrs): +++ (detectable at less than 35 cycles by RT-PCR with SE less than 0.9); HNF-3 beta gene expression ([1]; 48 hrs): nd (not detectable at >40 cycles by RT-PCR); Insulin gene expression ([1]; 48 hrs): nd (not detectable at >40 cycles by RT-PCR); Pdx-1 gene expression ([1]; 48 hrs): nd (not detectable at >40 cycles by RT-PCR); glucagon gene expression ([1]; 48 hrs): + (detectable between 35 and 40 cycles by RT-PCR); HNF-3 beta gene expression ([1]; 72 hrs): nd (not detectable at >40 cycles by RT-PCR); Insulin gene expression ([1]; 72 hrs): nd (not detectable at >40 cycles by RT-PCR); Pdx-1 gene expression ([1]; 72 hrs): nd (not detectable at >40 cycles by RT-PCR); glucagon gene expression ([1]; 72 hrs): + (detectable between 35 and 40 cycles by RT-PCR); HNF-3 beta gene expression ([1]; 96 hrs): nd (not detectable at >40 cycles by RT-PCR); Insulin gene expression ([1]; 96 hrs): nd (not detectable at >40 cycles by RT-PCR); Pdx-1 gene expression ([1]; 96 hrs): nd (not detectable at >40 cycles by RT-PCR); glucagon gene expression ([1]; 96 hrs): nd (not detectable at >40 cycles by RT-PCR); HNF-3 beta gene expression ([1]; 120 hrs): + (detectable between 35 and 40 cycles by RT-PCR); Insulin gene expression ([1]; 120 hrs): nd (not detectable at >40 cycles by RT-PCR); Pdx-1 gene expression ([1]; 120 hrs): +++ (detectable at less than 35 cycles by RT-PCR with SE less than 0.9); glucagon gene expression ([1]; 120 hrs): nd (not detectable at >40 cycles by RT-PCR); HNF-3 beta gene expression ([1]; 144 hrs): nd (not detectable at >40 cycles by RT-PCR); Insulin gene expression ([1]; 144 hrs): nd (not detectable at >40 cycles by RT-PCR); Pdx-1 gene expression ([1]; 144 hrs): nd (not detectable at >40 cycles by RT-PCR); glucagon gene expression ([1]; 144 hrs): + (detectable between 35 and 40 cycles by RT-PCR); Pdx-1 RT-PCR detection cycle ([1]; 5.0 μM, after the second treatment): 32 cycles; glucagon RT-PCR detection cycle ([1]; 5.0 μM, end of the experiment): 38 cycles; HNF-3 beta RT-PCR detection cycle ([1]; 5.0 μM, following a second treatment): 36 cycles; HNF-3 beta RT-PCR detection cycle [1, 4]: 34 cycles; glucagon RT-PCR detection cycle [1, 4]: 35 cycles; Pdx-1 gene expression ([2]; 5 μM 0-24 h + 96-120 h, 24 hrs): + (detectable at less than 35 cycles with SE greater than 0.9); Insulin gene expression ([2]; 5 μM 0-24 h + 96-120 h, 48 hrs): + (detectable at less than 35 cycles with SE greater than 0.9); glucagon gene expression ([2]; 5 μM 0-24 h + 96-120 h, 48 hrs): + (detectable at less than 35 cycles with SE greater than 0.9); glucagon gene expression ([2]; 5 μM 0-24 h + 96-120 h, 72 hrs): + (detectable at less than 35 cycles with SE greater than 0.9); glucagon gene expression ([2]; 5 μM 0-24 h + 96-120 h, 96 hrs): + (detectable at less than 35 cycles with SE greater than 0.9); HNF-3 beta gene expression [2, 5]: + (detectable at less than 35 cycles with SE greater than 0.9); glucagon gene expression [2, 5]: + (detectable at less than 35 cycles with SE greater than 0.9); glucagon gene expression ([2]; 5 μM 0-24 h + 96-120 h, 144 hrs): + (detectable at less than 35 cycles with SE greater than 0.9); HNF-3 beta RT-PCR detection cycle ([2]; after the second treatment): 36 cycles; HNF-3 beta RT-PCR detection cycle ([2]; following first treatment): 32 cycles; Pdx-1 RT-PCR detection cycle ([2]; following first treatment): 31 cycles; glucagon RT-PCR detection cycle ([2]; following first treatment): 33 cycles; glucagon RT-PCR detection cycle ([2]; following the medium change): 38 cycles; Pdx-1 RT-PCR detection cycle ([2]; following the second addition): 34 cycles; Gata1 gene expression ([3]; 24 hrs): + (detectable between 35 and 40 cycles by RT-PCR); HNF-3 beta gene expression ([3]; 24 hrs): +++ (detectable at less than 35 cycles by RT-PCR with SE less than 0.9); Insulin gene expression ([3]; 24 hrs): nd (not detectable at >40 cycles by RT-PCR); Pdx-1 gene expression ([3]; 24 hrs): +++ (detectable at less than 35 cycles by RT-PCR with SE less than 0.9); sox17 gene expression ([3]; 24 hrs): +++ (detectable at less than 35 cycles by RT-PCR with SE less than 0.9); Gata1 gene expression ([3]; 48 hrs): nd (not detectable at >40 cycles by RT-PCR); HNF-3 beta gene expression ([3]; 48 hrs): +++ (detectable at less than 35 cycles by RT-PCR with SE less than 0.9); Insulin gene expression ([3]; 48 hrs): nd (not detectable at >40 cycles by RT-PCR); Pdx-1 gene expression ([3]; 48 hrs): nd (not detectable at >40 cycles by RT-PCR); sox17 gene expression ([3]; 48 hrs): +++ (detectable at less than 35 cycles by RT-PCR with SE less than 0.9); Gata1 gene expression ([3]; 72 hrs): nd (not detectable at >40 cycles by RT-PCR); HNF-3 beta gene expression ([3]; 72 hrs): + (detectable between 35 and 40 cycles by RT-PCR); Insulin gene expression ([3]; 72 hrs): + (detectable between 35 and 40 cycles by RT-PCR); Pdx-1 gene expression ([3]; 72 hrs): nd (not detectable at >40 cycles by RT-PCR); sox17 gene expression ([3]; 72 hrs): +++ (detectable at less than 35 cycles by RT-PCR with SE less than 0.9); Gata1 gene expression ([3]; 96 hrs): nd (not detectable at >40 cycles by RT-PCR); HNF-3 beta gene expression ([3]; 96 hrs): + (detectable between 35 and 40 cycles by RT-PCR); Insulin gene expression ([3]; 96 hrs): + (detectable between 35 and 40 cycles by RT-PCR); Pdx-1 gene expression ([3]; 96 hrs): nd (not detectable at >40 cycles by RT-PCR); sox17 gene expression ([3]; 96 hrs): +++ (detectable at less than 35 cycles by RT-PCR with SE less than 0.9); Gata1 gene expression ([3]; 120 hrs): nd (not detectable at >40 cycles by RT-PCR); HNF-3 beta gene expression ([3]; 120 hrs): +++ (detectable at less than 35 cycles by RT-PCR with SE less than 0.9); Insulin gene expression ([3]; 120 hrs): nd (not detectable at >40 cycles by RT-PCR); Pdx-1 gene expression ([3]; 120 hrs): +++ (detectable at less than 35 cycles by RT-PCR with SE less than 0.9); sox17 gene expression ([3]; 120 hrs): +++ (detectable at less than 35 cycles by RT-PCR with SE less than 0.9); Gata1 gene expression ([3]; 144 hrs): nd (not detectable at >40 cycles by RT-PCR); HNF-3 beta gene expression ([3]; 144 hrs): +++ (detectable at less than 35 cycles by RT-PCR with SE less than 0.9); Insulin gene expression ([3]; 144 hrs): nd (not detectable at >40 cycles by RT-PCR); Pdx-1 gene expression ([3]; 144 hrs): nd (not detectable at >40 cycles by RT-PCR); sox17 gene expression ([3]; 144 hrs): +++ (detectable at less than 35 cycles by RT-PCR with SE less than 0.9); Gata-1 RT-PCR detection cycle ([3]; 1.25 μM, following the first addition): 37 cycles; Insulin RT-PCR detection cycle ([3]; 1.25 μM, following the media change): 36 cycles; HNF-3 beta RT-PCR detection cycle ([3]; 1.25 μM, initial treatment): 32 cycles; Pdx-1 RT-PCR detection cycle ([3]; 1.25 μM, initial treatment (37 before treatment)): 32 cycles; HNF-3 beta RT-PCR detection cycle ([3]; 1.25 μM, second treatment): 32 cycles; Pdx-1 RT-PCR detection cycle ([3]; 1.25 μM, second treatment): 34 cycles
